Tested on: Enterovirus A71
Assay: Antiviral activity against Enterovirus 71 clinical isolate TW/1956/05 infected in human RD cells assessed as cell viability after 3 days by MTS assay
Format: functional, organism-based
Conditions: Enterovirus A, isolate TW/1956/05, RD, 72 h

SMILES | EC50 [µM]
OC[C@H]1O[C@@H](n2cnc3c(NCCc4ccccc4)ncnc32)[C@H](O)[C@@H]1O | 2.7
OC[C@H]1O[C@@H](n2cnc3c(NC/C=C/c4ccccc4)ncnc32)[C@H](O)[C@@H]1O | 1

Tested on: Enterovirus A71
Assay: Antiviral activity against Enterovirus 71 clinical isolate H08300 461#812 infected in human RD cells assessed as cell viability after 3 days by MTS assay
Format: functional, organism-based
Conditions: Enterovirus A, isolate H08300 461#812, RD, 72 h

SMILES | EC50 [µM]
OC[C@H]1O[C@@H](n2cnc3c(NCCc4ccccc4)ncnc32)[C@H](O)[C@@H]1O | 1.9
OC[C@H]1O[C@@H](n2cnc3c(NC/C=C/c4ccccc4)ncnc32)[C@H](O)[C@@H]1O | 0.38

Tested on: Enterovirus A71
Assay: Antiviral activity against Enterovirus 71 infected in human RD cells assessed as cell viability after 3 days by MTS assay
Format: functional, organism-based
Conditions: Enterovirus A, 72 h

SMILES | EC50 [µM]
OC[C@H]1O[C@@H](n2cnc3c(NCCc4ccccc4)ncnc32)[C@H](O)[C@@H]1O | 1.8
O=C(Nc1ncnc2c1ncn2[C@@H]1O[C@H](CO)[C@@H](O)[C@H]1O)c1ccccc1 | 12
OC[C@H]1O[C@@H](n2cnc3c(NCCCCc4ccccc4)ncnc32)[C@H](O)[C@@H]1O | > 250
OC[C@H]1O[C@@H](n2cnc3c(NCCCc4ccccc4)ncnc32)[C@H](O)[C@@H]1O | 1.8
OC[C@H]1O[C@@H](n2cnc3c(OCc4ccccc4)ncnc32)[C@H](O)[C@@H]1O | 5.1
Cn1cc(CNc2ncnc3c2ncn3[C@@H]2O[C@H](CO)[C@@H](O)[C@H]2O)nn1 | > 136
OC[C@H]1O[C@@H](n2cnc3c(OCCc4ccccc4)ncnc32)[C@H](O)[C@@H]1O | > 8.5
OC[C@H]1O[C@@H](n2cnc3c(NCCc4ccccc4)ncnc32)C[C@@H]1O | > 281
O=C(Nc1ncnc2c1ncn2C(CO)OC(CO)CO)c1ccccc1 (stereo unspecified) | > 335
C=CCC#CCNc1ncnc2c1ncn2[C@@H]1O[C@H](CO)[C@@H](O)[C@H]1O | 4.9
OC[C@H]1O[C@@H](n2cnc3c(OCCCc4ccccc4)ncnc32)[C@H](O)[C@@H]1O | > 182
OC[C@H]1O[C@@H](n2cnc3c(NCOCc4ccccc4)ncnc32)[C@H](O)[C@@H]1O | 3
OC[C@H]1O[C@@H](n2cnc3c(NCCCOc4ccccc4)ncnc32)[C@H](O)[C@@H]1O | > 311
OC[C@H]1O[C@@H](n2cnc3c(NCCOc4ccccc4)ncnc32)C[C@@H]1O | > 135
OC[C@H]1O[C@@H](n2cnc3c(NCCCc4ccccc4)ncnc32)C[C@@H]1O | > 271
OC[C@H]1O[C@@H](n2cnc3c(NCc4ccccc4)ncnc32)C[C@@H]1O | > 146
OCCn1cc(CNc2ncnc3c2ncn3[C@@H]2O[C@H](CO)[C@@H](O)[C@H]2O)nn1 | > 317
C[C@H]1O[C@@H](n2cnc3c(NCc4ccccc4)ncnc32)[C@H](O)[C@@H]1O | 6.7
OC[C@H]1O[C@@H](n2cnc3c(NCc4cn(COCc5ccccc5)nn4)ncnc32)[C@H](O)[C@@H]1O | > 116
OC[C@H]1O[C@@H](n2cnc3c(NCC#Cc4ccccc4)ncnc32)[C@H](O)[C@@H]1O | 0.58
OC[C@H]1O[C@@H](n2cnc3c(NC/C=C/c4ccccc4)ncnc32)[C@H](O)[C@@H]1O | 0.66
OC[C@H]1O[C@@H](n2cnc3c(NCCOc4ccccc4)ncnc32)[C@H](O)[C@@H]1O | 4.3
C[C@H]1O[C@@H](n2cnc3c(NCCc4ccccc4)ncnc32)[C@H](O)[C@@H]1O | > 281
OC[C@H]1O[C@@H](n2cnc3c(NCc4cn(Cc5ccccc5)nn4)ncnc32)[C@H](O)[C@@H]1O | > 228
CC(C)=CCNc1ncnc2nc[nH]c12 | > 325
c1ccc(CNc2ncnc3nc[nH]c23)cc1 [6-BENZYLAMINOPURINE] | 0.42
OC[C@H]1O[C@@H](n2cnc3c(NCc4ccco4)ncnc32)[C@H](O)[C@@H]1O [KINETIN RIBOSIDE] | 1.4
OC[C@H]1O[C@@H](n2cnc3c(NCc4ccccc4)ncnc32)[C@H](O)[C@@H]1O [N6-BENZYLADENOSINE] | 0.28
OC[C@H]1O[C@@H](n2cnc3c(Nc4ccccc4)ncnc32)[C@H](O)[C@@H]1O [N6-PHENYLADENOSINE] | > 291
CC(C)=CCNc1ncnc2c1ncn2[C@@H]1O[C@H](CO)[C@@H](O)[C@H]1O [RIBOPRINE] | 1

Tested on: Enterovirus A71
Assay: Antiviral activity against Enterovirus 71 isolate TW/2429/04 infected in human RD cells assessed as cell viability after 3 days by MTS assay
Format: functional, organism-based
Conditions: Enterovirus A, isolate TW/2429/04, RD, 72 h

SMILES | EC50 [µM]
OC[C@H]1O[C@@H](n2cnc3c(NCCc4ccccc4)ncnc32)[C@H](O)[C@@H]1O | 3.7
OC[C@H]1O[C@@H](n2cnc3c(NC/C=C/c4ccccc4)ncnc32)[C@H](O)[C@@H]1O | 1.16

Tested on: Enterovirus A71
Assay: Antiviral activity against Enterovirus 71 clinical isolate 11316 infected in human RD cells assessed as cell viability after 3 days by MTS assay
Format: functional, organism-based
Conditions: Enterovirus A, isolate 11316, RD, 72 h

SMILES | EC50 [µM]
OC[C@H]1O[C@@H](n2cnc3c(NCCc4ccccc4)ncnc32)[C@H](O)[C@@H]1O | 8.2
OC[C@H]1O[C@@H](n2cnc3c(NC/C=C/c4ccccc4)ncnc32)[C@H](O)[C@@H]1O | 2.2

Tested on: not listed separately
Assay: Selectivity index, ratio of CC50 for human RD cells to EC50 for Enterovirus 71
Format: toxicity, cell-based
Conditions: read-out: Ratio CC50/EC50

SMILES | selectivity ratio
OC[C@H]1O[C@@H](n2cnc3c(NCCc4ccccc4)ncnc32)[C@H](O)[C@@H]1O | 123
O=C(Nc1ncnc2c1ncn2[C@@H]1O[C@H](CO)[C@@H](O)[C@H]1O)c1ccccc1 | > 28
OC[C@H]1O[C@@H](n2cnc3c(NCCCc4ccccc4)ncnc32)[C@H](O)[C@@H]1O | 105
OC[C@H]1O[C@@H](n2cnc3c(OCc4ccccc4)ncnc32)[C@H](O)[C@@H]1O | 37
C=CCC#CCNc1ncnc2c1ncn2[C@@H]1O[C@H](CO)[C@@H](O)[C@H]1O | > 88
OC[C@H]1O[C@@H](n2cnc3c(NCOCc4ccccc4)ncnc32)[C@H](O)[C@@H]1O | 175
C[C@H]1O[C@@H](n2cnc3c(NCc4ccccc4)ncnc32)[C@H](O)[C@@H]1O | > 54
OC[C@H]1O[C@@H](n2cnc3c(NCC#Cc4ccccc4)ncnc32)[C@H](O)[C@@H]1O | 124
OC[C@H]1O[C@@H](n2cnc3c(NC/C=C/c4ccccc4)ncnc32)[C@H](O)[C@@H]1O | 645
OC[C@H]1O[C@@H](n2cnc3c(NCCOc4ccccc4)ncnc32)[C@H](O)[C@@H]1O | 25
c1ccc(CNc2ncnc3nc[nH]c23)cc1 [6-BENZYLAMINOPURINE] | 1300
OC[C@H]1O[C@@H](n2cnc3c(NCc4ccco4)ncnc32)[C@H](O)[C@@H]1O [KINETIN RIBOSIDE] | 5.6
OC[C@H]1O[C@@H](n2cnc3c(NCc4ccccc4)ncnc32)[C@H](O)[C@@H]1O [N6-BENZYLADENOSINE] | 14
CC(C)=CCNc1ncnc2c1ncn2[C@@H]1O[C@H](CO)[C@@H](O)[C@H]1O [RIBOPRINE] | 5.8

Tested on: Enterovirus A71
Assay: Antiviral activity against Enterovirus 71 clinical isolate TW/96016/08 infected in human RD cells assessed as cell viability after 3 days by MTS assay
Format: functional, organism-based
Conditions: Enterovirus A, isolate TW/96016/08, RD, 72 h

SMILES | EC50 [µM]
OC[C@H]1O[C@@H](n2cnc3c(NCCc4ccccc4)ncnc32)[C@H](O)[C@@H]1O | 5.6
OC[C@H]1O[C@@H](n2cnc3c(NC/C=C/c4ccccc4)ncnc32)[C@H](O)[C@@H]1O | 2

Tested on: Enterovirus A71
Assay: Antiviral activity against Enterovirus 71 clinical isolate TW/70902/08 infected in human RD cells assessed as cell viability after 3 days by MTS assay
Format: functional, organism-based
Conditions: Enterovirus A, isolate TW/70902/08, RD, 72 h

SMILES | EC50 [µM]
OC[C@H]1O[C@@H](n2cnc3c(NCCc4ccccc4)ncnc32)[C@H](O)[C@@H]1O | 8.3
OC[C@H]1O[C@@H](n2cnc3c(NC/C=C/c4ccccc4)ncnc32)[C@H](O)[C@@H]1O | 2.5

Tested on: not listed separately
Assay: Cytotoxicity against human RD cells
Format: cell-based
Conditions: not given

SMILES | CC50 [µM]
OC[C@H]1O[C@@H](n2cnc3c(NCCc4ccccc4)ncnc32)[C@H](O)[C@@H]1O | 221
O=C(Nc1ncnc2c1ncn2[C@@H]1O[C@H](CO)[C@@H](O)[C@H]1O)c1ccccc1 | > 337
OC[C@H]1O[C@@H](n2cnc3c(NCCCCc4ccccc4)ncnc32)[C@H](O)[C@@H]1O | > 313
OC[C@H]1O[C@@H](n2cnc3c(NCCCc4ccccc4)ncnc32)[C@H](O)[C@@H]1O | 189
OC[C@H]1O[C@@H](n2cnc3c(OCc4ccccc4)ncnc32)[C@H](O)[C@@H]1O | 191
Cn1cc(CNc2ncnc3c2ncn3[C@@H]2O[C@H](CO)[C@@H](O)[C@H]2O)nn1 | 136
OC[C@H]1O[C@@H](n2cnc3c(OCCc4ccccc4)ncnc32)[C@H](O)[C@@H]1O | 8.5
OC[C@H]1O[C@@H](n2cnc3c(NCCc4ccccc4)ncnc32)C[C@@H]1O | > 352
O=C(Nc1ncnc2c1ncn2C(CO)OC(CO)CO)c1ccccc1 (stereo unspecified) | > 335
C=CCC#CCNc1ncnc2c1ncn2[C@@H]1O[C@H](CO)[C@@H](O)[C@H]1O | > 434
OC[C@H]1O[C@@H](n2cnc3c(OCCCc4ccccc4)ncnc32)[C@H](O)[C@@H]1O | 182
OC[C@H]1O[C@@H](n2cnc3c(NCOCc4ccccc4)ncnc32)[C@H](O)[C@@H]1O | 525
OC[C@H]1O[C@@H](n2cnc3c(NCCCOc4ccccc4)ncnc32)[C@H](O)[C@@H]1O | > 311
OC[C@H]1O[C@@H](n2cnc3c(NCCOc4ccccc4)ncnc32)C[C@@H]1O | > 337
OC[C@H]1O[C@@H](n2cnc3c(NCCCc4ccccc4)ncnc32)C[C@@H]1O | > 271
OC[C@H]1O[C@@H](n2cnc3c(NCc4ccccc4)ncnc32)C[C@@H]1O | > 366
OCCn1cc(CNc2ncnc3c2ncn3[C@@H]2O[C@H](CO)[C@@H](O)[C@H]2O)nn1 | 317
C[C@H]1O[C@@H](n2cnc3c(NCc4ccccc4)ncnc32)[C@H](O)[C@@H]1O | > 366
OC[C@H]1O[C@@H](n2cnc3c(NCc4cn(COCc5ccccc5)nn4)ncnc32)[C@H](O)[C@@H]1O | 116
OC[C@H]1O[C@@H](n2cnc3c(NCC#Cc4ccccc4)ncnc32)[C@H](O)[C@@H]1O | 72
OC[C@H]1O[C@@H](n2cnc3c(NC/C=C/c4ccccc4)ncnc32)[C@H](O)[C@@H]1O | 426
OC[C@H]1O[C@@H](n2cnc3c(NCCOc4ccccc4)ncnc32)[C@H](O)[C@@H]1O | 107
C[C@H]1O[C@@H](n2cnc3c(NCCc4ccccc4)ncnc32)[C@H](O)[C@@H]1O | 463
OC[C@H]1O[C@@H](n2cnc3c(NCc4cn(Cc5ccccc5)nn4)ncnc32)[C@H](O)[C@@H]1O | > 285
CC(C)=CCNc1ncnc2nc[nH]c12 | 325
c1ccc(CNc2ncnc3nc[nH]c23)cc1 [6-BENZYLAMINOPURINE] | 547
OC[C@H]1O[C@@H](n2cnc3c(NCc4ccco4)ncnc32)[C@H](O)[C@@H]1O [KINETIN RIBOSIDE] | 7.8
OC[C@H]1O[C@@H](n2cnc3c(NCc4ccccc4)ncnc32)[C@H](O)[C@@H]1O [N6-BENZYLADENOSINE] | 4
OC[C@H]1O[C@@H](n2cnc3c(Nc4ccccc4)ncnc32)[C@H](O)[C@@H]1O [N6-PHENYLADENOSINE] | 372
CC(C)=CCNc1ncnc2c1ncn2[C@@H]1O[C@H](CO)[C@@H](O)[C@H]1O [RIBOPRINE] | 5.8

From ChEMBL document CHEMBL3792372, “Modification of the length and structure of the linker of N(6)-benzyladenosine modulates its selective antiviral activity against enterovirus 71” (Eur J Med Chem, 2016)
